Experiments:
[1] = biological target: T1, human Y5 receptor (hNPY-5) (Homo sapiens, UniProt Q15761); test: Radioligand binding to membranes, cloned human Y5 receptor; conditions: cloned human NPY Y5 receptor, radioligand competition binding; Tables 1-3; read-out: Ki, nM hNPY-5
T1 construct: expressed in transfected cells; host or cells: mouse fibroblast LM(tk-) cells, e.g. L-hY5-7 (ATCC CRL-11995)
T1 sequence (Q15761 1-445): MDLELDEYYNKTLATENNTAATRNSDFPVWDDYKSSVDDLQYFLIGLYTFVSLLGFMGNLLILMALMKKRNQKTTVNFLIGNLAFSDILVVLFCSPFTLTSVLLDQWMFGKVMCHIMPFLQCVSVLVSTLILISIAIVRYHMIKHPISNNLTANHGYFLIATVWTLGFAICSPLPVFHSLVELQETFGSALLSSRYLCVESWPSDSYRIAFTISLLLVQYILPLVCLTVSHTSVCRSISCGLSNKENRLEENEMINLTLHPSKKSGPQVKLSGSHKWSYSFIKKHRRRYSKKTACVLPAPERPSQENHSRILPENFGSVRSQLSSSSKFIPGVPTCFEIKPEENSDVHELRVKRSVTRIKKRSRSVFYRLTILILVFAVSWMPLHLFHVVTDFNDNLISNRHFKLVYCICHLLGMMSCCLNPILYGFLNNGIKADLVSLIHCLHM
Procedure, shortened: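 Competition binding on membranes from stably transfected 293 or LM(tk-) cells, with 0.08 nM ¹²⁵I-PYY in pH 7.4 HEPES buffer plus 0.1% BSA, 120 min at 30 °C, filtration and counting. Nonspecific binding defined by 300 nM human NPY, or 100 nM human PP for Y4; nonlinear regression.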

[2] = biological target: hNPY-1,2,4 (human Y1, Y2, Y4 receptors); test: Radioligand binding to membranes, cloned human Y1, Y2 and Y4 receptors; conditions: one bound given for all three
Description: Binding of the compounds of the present invention to human Y1, Y2, Y4, and Y5 receptors was evaluated using stably transfected 293 or LM(tk-) cells as described above. Stably transfected cell lines which may be used for binding assays include, for example, for the human Y1 receptor, 293-hY1-5 (deposited Jun. 4, 1996, under ATCC Accession No. CRL-12121), for the human Y2 receptor, 293-hY2-10 (deposited Jan. 27, 1994, under ATCC Accession No. CRL-11537), for the human Y4 receptor, L-hY4-3 (deposited Jan. 11, 1995, under ATCC Accession No. CRL-11779), and for human Y5 receptor, L-hY5-7 (deposited Nov. 15, 1995, under ATCC Accession No. CRL-11995). These cell lines were deposited with the American Type Culture Collection (ATCC), 10801 University Blvd., Manassas, Va. 20110-2209, U.S.A. under the provisions of the Budapest Treaty for the International Recognition of the Deposit of Microorganisms for the Purposes of Patent Procedure.
Membranes were harvested from COS-7 cells 48 hours after transient transfection. Adherent cells were washed twice in ice-cold phosphate buffered saline (138 mM NaCl, 8.1 mM Na2HPO4, 2.5 mM KCl, 1.2 mM KH2PO4, 0.9 mM CaCl2, 0.5 mM MgCl2, pH 7.4) and lysed by sonication in ice-cold sonication buffer (20 mM Tris-HCl, 5 mM EDTA, pH 7.7). Large particles and debris were cleared by low speed centrifugation (200×g, 5 min, 4° C.). Membranes were collected from the supernatant fraction by centrifugation (32,000×g, 18 min, 4° C.), washed with ice-cold hypotonic buffer, and collected again by centrifugation (32,000×g, 18 min, 4° C.). The final membrane pellet was resuspended by sonication into a small volume of ice-cold binding buffer (˜1 ml for every 5 plates: 10 mM NaCl, 20 mM HEPES, 0.22 mM KH2PO4, 1.26 mM CaCl2, 0.81 mM MgSO4, pH 7.4). Protein concentration was measured by the Bradford method (Bradford, 1976) using Bio-Rad Reagent, with bovine serum albumin as a standard. Membranes were held on ice for up to one hour and used fresh, or flash-frozen and stored in liquid nitrogen.
Membranes were prepared similarly from 293, LM(tk-), and NIH-3T3 cells. To prepare membranes from baculovirus infected cells, 2×10^7 Sf21 cells were grown in 150 mm tissue culture dishes and infected with a high-titer stock of hY5BB3. Cells were incubated for 2-4 days at 27° C., no CO2 before harvesting and membrane preparation as described above.
Membrane suspensions were diluted in binding buffer supplemented with 0.1% bovine serum albumin to yield an optimal membrane protein concentration so that ^125I-PYY (or alternative radioligand such as ^125I-NPY, ^125I-PYY3-36, or ^125I-[Leu^31Pro^34]PYY) bound by membranes in the assay was less than 10% of ^125I-PYY (or alternative radioligand) delivered to the sample (100,000 dpm/sample=0.08 nM for competition binding assays). ^125I-PYY (or alternative radioligand) and peptide competitors were also diluted to desired concentrations in supplemented binding buffer. Individual samples were then prepared in 96-well polypropylene microtiter plates by mixing 125I-PYY (25 μL) (or alternative radioligand), competing peptides or supplemented binding buffer (25 μL), and finally, membrane suspensions (200 μL). Samples were incubated in a 30° C. water bath with constant shaking for 120 min. Incubations were terminated by filtration over Whatman GF/C filters (pre-coated with 1% polyethyleneimine and air-dried before use), followed by washing with 5 mL of ice-cold binding buffer. Filter-trapped membranes were impregnated with MeltiLex solid scintillant (Wallac, Turku, Finland) and counted for ^125I in a Wallac Beta-Plate Reader. Alternatively, incubations were carried out in GF/C filter plates (pre-coated with 1% polyethyleneimine and air-dried before use), followed by vacuum filtration and three washes of 300 μL of ice-cold binding buffer. 50 μL of UltimaGold (Packard) scintillant were added and counted for ^125I in a Wallac MicroBeta Trilux. […]

Compound | Ki [1] | Ki [2] | melting point
COC[C@@H]1CCCN1S(=O)(=O)c1ccc(Nc2nc3c(s2)CCCc2ccc(F)cc2-3)cc1 [Example 9, 1-Aza-9-fluoro-4,5-dihydro-2-(4-((2(S)-methoxy-methyl)-pyrrolidine-1-yl)sulfonyl)phenylamino-3-thia-benzo[e]azulene] | 15.4 nM | > 10000 nM | 186 to 188 °C
Cc1noc(C)c1S(=O)(=O)NCCCCCNc1nc2c(s1)CCCc1ccc(F)cc1-2 [Example 24, 1-Aza-9-fluoro-4,5-dihydro-2-(5-(3,5-dimethyl-isoxazol-4-yl)sulfonylamino)pentylamino-3-thia-benzo[e]azulene] | 3.5 nM | > 10000 nM | 
NS(=O)(=O)NCCCCCNc1nc2c(s1)CCCc1ccc(F)cc1-2 [Example 25, 1-Aza-9-fluoro-4,5-dihydro-2-(5-aminosulfonylamino)-pentylamino-3-thia-benzo[e]azulene] | 2.9 nM | > 10000 nM | 
O=S(=O)(NC[C@H]1CC[C@H](Nc2nc3c(s2)CCCc2ccc(F)cc2-3)CC1)c1c(F)cccc1F [Example 28, trans-N2-(4-(2,6-Difluorophenylsulfonyl)aminomethyl)-cyclohexyl-9-fluoro-5,6-dihydro-4H-benzo[6,7]-cyclohepta-[d][1,3]-thiazol-2-amine] | 4 nM | > 10000 nM | 
Cn1cnc(S(=O)(=O)NCCCCCNc2nc3c(s2)CCCc2ccc(F)cc2-3)c1 [Example 23, 1-Aza-9-fluoro-4,5-dihydro-2-(5-(1-methylimidazol-4-yl)sulfonylamino)pentylamino-3-thia-benzo[e]azulene] | 15.5 nM | > 10000 nM | 50 to 53 °C
CCS(=O)(=O)NC[C@H]1CC[C@H](Nc2nc3c(s2)CCCc2ccc(F)cc2-3)CC1 [Example 31, trans-N2-(4-Ethylsulfonylaminomethyl)cyclohexyl-9-fluoro-5,6-dihydro-4H-benzo[6,7]cyclohepta[d][1,3]-thiazol-2-amine] | 3.9 nM | > 10000 nM | 
O=S(=O)(NCCCCNc1nc2c(s1)CCCc1ccc(F)cc1-2)c1ccccc1F [Example 7, 1-Aza-9-fluoro-2-(4-(2-fluorophenyl)sulfonylamino)-butylamino-4,5-dihydro-3-thia-benzo[e]azulene] | 23 nM | > 10000 nM | 
O=S(=O)(NCCCCCNc1nc2c(s1)CCCc1ccc(F)cc1-2)c1cccs1 [Example 19, 1-Aza-9-fluoro-4,5-dihydro-2-(5-(2-thienyl)-sulfonylamino)-pentylamino-3-thia-benzo[e]azulene] | 5 nM | > 10000 nM | 152 to 154 °C
O=S(=O)(Cc1ccccc1)NCCCCCNc1nc2c(s1)CCCc1ccc(F)cc1-2 [Example 16, 1-Aza-2-(5-benzylsulfonylamino)pentylamino-9-fluoro-4,5-dihydro-3-thia-benzo[e]azulene] | 4.7 nM | > 10000 nM | 
O=S(=O)(Cc1ccccc1)NC[C@H]1CC[C@H](Nc2nc3c(s2)CCCc2ccc(F)cc2-3)CC1 [Example 29, trans-1-Aza-2-{4-benzylsulfonylaminomethyl}-cyclohexylamino-9-fluoro-4,5-dihydro-3-thia-benzo[e]-azulene] | 10.3 nM | > 10000 nM | 

Other lines, results leading:

Ki [1] | Ki [2] | melting point | Compound
7.4 nM | > 10000 nM | 230 to 231 °C | O=S(=O)(N[C@H]1CC[C@H](Nc2nc3c(s2)CCCc2ccc(F)cc2-3)CC1)c1cccs1 [Example 37, trans-1-Aza-9-fluoro-4,5-dihydro-2-(4-(2-thienyl)-sulfonyl-amino)cyclohexylamino-3-thia-benzo[e]azulene]
34 nM | > 10000 nM | 170 to 173 °C | NS(=O)(=O)NC[C@H]1CC[C@H](Nc2nc3c(s2)CCOc2ccccc2-3)CC1 [Example 46, trans-N2-(4-Aminosulfonylaminomethyl)cyclohexyl-4,5-dihydro-benzo[2,3]oxepino[4,5-d][1,3]thiazol-2-amine]
15.8 nM | > 10000 nM | 89 to 91 °C | O=S(=O)(CC(F)(F)F)N[C@H]1CC[C@H](Nc2nc3c(s2)CCCc2ccc(F)cc2-3)CC1 [Example 38, trans-1-Aza-9-fluoro-4,5-dihydro-2-(4-(2,2,2-trifluoro-ethyl)sulfonylamino)cyclohexylamino-3-thia-benzo [e]azulene]
65 nM | > 10000 nM | 145 to 147 °C | CS(=O)(=O)NCCCCC(=O)Nc1nc2c(s1)CCCc1ccc(F)cc1-2 [Example 45, N1-(9-fluoro-5,6-dihydro-4H-benzo[6,7]cyclohepta-[d][1,3]thiazol-2-yl)-5-[(methylsulfonyl)amino]-pentanamide]
22 nM | > 10000 nM | 67 to 69 °C | CS(=O)(=O)NC[C@H]1CC[C@H](Nc2nc3c(s2)CCOc2ccccc2-3)CC1 [Example 47, trans-N2-(4-Methylsulfonylaminomethyl)cyclohexyl-4,5-dihydro-benzo[2,3]oxepino[4,5-d][1,3]thiazol-2-amine]
6.5 nM | > 10000 nM | 172 to 174 °C | CCN(CC)S(=O)(=O)N[C@H]1CC[C@H](Nc2nc3c(s2)CCCc2ccc(F)cc2-3)CC1 [Example 35, trans-1-Aza-9-fluoro-4,5-dihydro-2-(4-diethylamino-sulfonylamino)cyclohexylamino-3-thia-benzo[e]azulene]
5.2 nM | > 10000 nM |  | CCN(CC)S(=O)(=O)NC[C@H]1CC[C@H](Nc2nc3c(s2)CCSc2ccccc2-3)CC1 [Example 102, N′-{[4-(4,5-Dihydrobenzo[2,3]thiepino[4,5-d][1,3]thiazol-2-ylamino)cyclohexyl]methyl}-N,N-diethylsulfamide]
3.7 nM | > 10000 nM |  | CCN(CC)S(=O)(=O)NCCCCCNc1nc2c(s1)CCSc1ccccc1-2 [Example 103, N′-[5-(4,5-Dihydrobenzo[2,3]thiepino[4,5-d][1,3]thiazol-2-ylamino)pentyl]-N,N-diethylsulfamide]

Source: US7273880B2, “Selective NPY (Y5) antagonists” (H. Lunbeck A/S, priority 1999, dated 2007)
